Patent US8362000B2, “Azetidinyl diamides as monoacylglycerol lipase inhibitors” (Janssen Pharmaceutica NV, priority 2009, dated 2013)
Residue numbers refer to the chain shown, from its start. pIC50, pKd: −log10 of the molar value. Where two headings read alike, the source gives them in different places.

Tests used:
mutant MGL = target: T1, mutant MGL (Homo sapiens, UniProt Q99685, L169S/L176S); assay: MGL ThermoFluor assay - mutant; assay type: binding; details: for Kd: read-out: MGL mutant ThermoFluor qKd (μM) (using qNMR conc.)
T1 sequence (Q99685 1-303 L169S/L176S): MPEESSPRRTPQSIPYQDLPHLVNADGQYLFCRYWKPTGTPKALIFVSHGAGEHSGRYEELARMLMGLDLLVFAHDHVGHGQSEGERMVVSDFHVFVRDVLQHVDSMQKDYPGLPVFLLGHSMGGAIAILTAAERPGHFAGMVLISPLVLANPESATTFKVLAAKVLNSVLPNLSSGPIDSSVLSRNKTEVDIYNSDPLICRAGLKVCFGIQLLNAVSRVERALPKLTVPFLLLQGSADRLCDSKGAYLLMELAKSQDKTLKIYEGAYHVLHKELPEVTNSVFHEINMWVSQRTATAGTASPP

[1] = target: T2, purified wild type MGL (wt-MGLL 6H-11-313) (Homo sapiens, UniProt Q99685)
T2 sequence (Q99685 1-303): T1 sequence (Q99685 1-303 L169S/L176S) with S169L, S176L

[2] = compound concentration measured by qNMR, read-out: MGL mutant ThermoFluor qKd (using qNMR conc.)
[3] = ThermoFluor, compound concentration measured by qNMR, read-out: MGL mutant ThermoFluor qKd (using qNMR conc.)
[4] = ThermoFluor concentration-response, read-out: MGL mutant ThermoFluor Kd
[5] = ThermoFluor, compound concentration measured by qNMR
[6] = ThermoFluor thermal stability binding assay, read-out: MGL mutant ThermoFluor Kd

SMILES | pIC50 [1] | pKd (mutant MGL; [4]) | other results
Cc1cc(C(=O)N2CC(N3CCN(C(=O)c4nccs4)CC3)C2)cc2ccn(-c3ccc(F)cc3)c12 [Cpd 1355, 1-(4-Fluorophenyl)-7-methyl-5-({3-[4-(1,3-thiazol-2-ylcarbonyl)piperazin-1-yl]azetidin-1-yl}carbonyl)-1H-indole] | > 8.30 |  | pKd (mutant MGL; [2]): 8.70
O=C(c1ccc2c(c1)[nH]c(=O)n2-c1ccc(F)cc1)N1CC(N2CCN(C(=O)c3cscn3)CC2)C1 [Cpd 940] | 5.65 | 6.59 | 
Cc1cn(-c2cccc(F)c2)c2ccc(C(=O)N3CC(N4CCN(C(=O)c5ccccc5)CC4)C3)cc12 [Cpd 583] | 6.98 |  | Kd (mutant MGL; [5]): 0.051 µM
O=C(c1ccc2nc(-c3ccccc3)oc2c1)N1CCN(C2CN(C(=O)c3nccs3)C2)CC1 [Cpd 1233] | 6.46 |  | pKd (mutant MGL; [6]): 6.72
Cc1c(C(=O)N2CCN(C3CN(C(=O)c4ccc[nH]4)C3)CC2)sc2cc(C(F)(F)F)ccc12 [Cpd 731] | 6.62 | 7.80 | 
O=C(c1ccccc1)N1CCN(C2CN(C(=O)c3ccc4nc(-c5ccccc5)sc4c3)C2)CC1 [Cpd 592, 2-Phenyl-6-({3-[4-(phenylcarbonyl)piperazin-1-yl]azetidin-1-yl}carbonyl)-1,3-benzothiazole] | 6.60 | 6.30 | 
Cc1nc(-c2ccccc2F)sc1C(=O)N1CC(N2CCN(C(=O)c3cscn3)CC2)C1 [Cpd 1287] | 5.61 | 6.31 | 
C[C@@H]1CN(C2CN(C(=O)c3cc4ccc(C(F)(F)F)cc4s3)C2)C[C@H](C)N1C(=O)c1nccs1 [Cpd 954, (2R,6S)-2,6-Dimethyl-1-(1,3-thiazol-2-ylcarbonyl)-4-(1-{[6-(trifluoromethyl)-1-benzothiophen-2-yl]carbonyl}azetidin-3-yl)piperazine] | 5.56 |  | pKd (mutant MGL; [3]): 5.46
O=C(c1ccccc1)N1CCN(C2CN(C(=O)c3ccc(Oc4ccc(Cl)cn4)cc3)C2)CC1 [Cpd 520] | 5.69 | 5.70 | 
O=C(c1sc2cc(C(F)(F)F)ccc2c1Cl)N1CC(N2CCN(C(=O)C(F)(F)F)CC2)C1 [Cpd 656, 1-(1-{[3-Chloro-6-(trifluoromethyl)-1-benzothiophen-2-yl]carbonyl}azetidin-3-yl)-4-(trifluoroacetyl)piperazine] | 8.10 |  | pKd (mutant MGL; [3]): 7.00
O=C(c1ccc2c(ccn2-c2cccnc2)c1)N1CC(N2CCN(C(=O)c3ccc[nH]3)CC2)C1 [Cpd 1247, 1-Pyridin-3-yl-5-({3-[4-(1H-pyrrol-2-ylcarbonyl)piperazin-1-yl]azetidin-1-yl}carbonyl)-1H-indole] | 6.27 |  | pKd (mutant MGL; [3]): 6.19
O=C(c1ccc2c(ccn2-c2ccc(F)cc2)c1)N1CC(N2CCN(C(=O)c3ccc(Cl)o3)CC2)C1 [Cpd 1425] | 8.05 |  | Kd (mutant MGL; [5]): 0.019 µM
O=C(c1cscn1)N1CCN(C2CN(C(=O)c3cc(-c4ccccc4)ccc3F)C2)CC1 [Cpd 1280] | 5.70 | 5.19 | 
Cc1c(C(=O)N2CC(N3CCN(C(=O)c4nccs4)CC3)C2)c2ccccc2n1C [Cpd 796] | 5.82 | 7.00 | 
O=C(c1ccc2c(ccn2CC(F)F)c1)N1CC(N2CCN(C(=O)c3cscn3)CC2)C1 [Cpd 813] | 5.62 |  | pKd (mutant MGL; [2]): 6.30
O=C(c1ccc(-c2cccc(C(F)(F)F)c2)cc1)N1CC(N2CCN(C(=O)c3ccc(Br)o3)CC2)C1 [Cpd 1335] | > 8.30 |  | Kd (mutant MGL; [5]): 0.011 µM
Cc1cc(C(=O)N2CC(N3CCN(C(=O)c4nccs4)CC3)C2)sc1Br [Cpd 723] | 6.74 |  | Kd (mutant MGL; [5]): 0.292 µM
Cn1cc(C(=O)N2CC(N3CCN(C(=O)c4nccs4)CC3)C2)c2ccccc21 [Cpd 838] | 5.29 | 6.01 | 
Cc1c(C(=O)N2CC(N3CCN(C(=O)c4nccs4)CC3)C2)sc2nc3n(c(=O)c12)CCC3 [Cpd 824] | 5.51 |  | pKd (mutant MGL; [3]): 7.13
O=C(c1cscn1)N1CC(N2CCN(C(=O)c3cc4cc(Br)cnc4o3)CC2)C1 [Cpd 1449] | < 4.78 |  | pKd (mutant MGL; [6]): 5.50
O=C(c1nccs1)N1CC(N2CCN(C(=O)c3cc4cc(C(F)(F)F)ccc4s3)C(c3ccccc3)C2)C1 (centres unmarked) [Cpd 804] | 5.70 | 6.98 | 
O=C(c1ccc2c(ccn2-c2ccc(C(F)(F)F)cn2)c1)N1CC(N2CCN(C(=O)c3nccs3)CC2)C1 [Cpd 1314, 5-({3-[4-(1,3-Thiazol-2-ylcarbonyl)piperazin-1-yl]azetidin-1-yl}carbonyl)-1-[5-(trifluoromethyl)pyridin-2-yl]-1H-indole] | > 8.30 |  | pKd (mutant MGL; [3]): 9.00
O=C(c1ccccc1)N1CCN(C2CN(C(=O)c3ccc(N4CCOCC4)nc3)C2)CC1 [Cpd 1485, 4-[5-({3-[4-(Phenylcarbonyl)piperazin-1-yl]azetidin-1-yl}carbonyl)pyridin-2-yl]morpholine] | < 4.78 | 5.00 | 
O=C(c1ccc(-c2cccc(C(F)(F)F)c2)cc1)N1CC(N2CCN(C(=O)c3cnco3)CC2)C1 [Cpd 1169] | 7.26 |  | Kd (mutant MGL; [5]): 0.053 µM
Cc1nc2cc(C(=O)N3CC(N4CCN(C(=O)c5cscn5)CC4)C3)ccc2n1CC(F)(F)F [Cpd 858] | 5.06 |  | pKd (mutant MGL; [2]): 6.25
Cc1c(Cc2ccc(C(F)(F)F)cc2)cccc1C(=O)N1CC(N2CCN(C(=O)c3cncs3)CC2)C1 [Cpd 1015] | 6.11 | 5.93 | 
O=C(c1ccccc1)c1c[nH]c(C(=O)N2CC(N3CCN(C(=O)c4nccs4)CC3)C2)c1 [Cpd 874] | 4.82 |  | pKd (mutant MGL; [3]): 5.07

More lines, main results first:

pIC50 [1] | pKd (mutant MGL; [4]) | SMILES | other results
5.92 |  | O=C(c1cnc2cc(Cl)ccc2c1)N1CC(N2CCN(C(=O)c3nccs3)CC2)C1 [Cpd 787] | pKd (mutant MGL; [3]): 6.61
6.33 | 6.48 | Cc1c(C(=O)N2CC(N3CCN(C(=O)c4cscn4)CC3)C2)[nH]c2ccc(Cl)cc12 [Cpd 755] | 
7.80 |  | Cn1cc(Cc2ccc(F)cc2)c2ccc(C(=O)N3CC(N4CCN(C(=O)c5nccs5)CC4)C3)cc21 [Cpd 1026] | pKd (mutant MGL; [2]): 9.00
5.33 |  | O=C(c1ccc2ccn(Cc3ccncc3)c2c1)N1CC(N2CCN(C(=O)c3nccs3)CC2)C1 [Cpd 1047] | pKd (mutant MGL; [2]): 6.33
6.24 |  | O=C(c1ccc2c(c1)ncn2C1CCC(F)(F)CC1)N1CC(N2CCN(C(=O)c3nccs3)CC2)C1 [Cpd 759] | pKd (mutant MGL; [2]): 7.43
> 8.30 |  | O=C(c1ccc2nn(-c3cccc(OC(F)(F)F)c3)cc2c1)N1CC(N2CCN(C(=O)c3nccs3)CC2)C1 [Cpd 1376] | Kd (mutant MGL; [5]): 0.013 µM
7.92 |  | CC(c1ccccc1)n1ncc2cc(C(=O)N3CC(N4CCN(C(=O)c5nccs5)CC4)C3)ccc21 (centres unmarked) [Cpd 1411, 1-(1-Phenylethyl)-5-({3-[4-(1,3-thiazol-2-ylcarbonyl)piperazin-1-yl]azetidin-1-yl}carbonyl)-1H-indazole] | pKd (mutant MGL; [2]): 9.00
5.48 | 6.30 | O=C(c1ccc2[nH]c(C3CCCCC3)nc2c1)N1CCN(C2CN(C(=O)c3nccs3)C2)CC1 [Cpd 827] | 
6.22 | 6.82 | O=C(c1ccccc1)N1CCN(C2CN(C(=O)c3ccc4c(-c5ccc(C(F)(F)F)cc5)ncnc4c3)C2)CC1 [Cpd 597] | 
5.99 |  | O=C(c1ccccc1)N1CCN(C2CN(C(=O)c3ccc4nc(-c5cccc(F)c5)sc4c3)C2)CC1 [Cpd 599] | pKd (mutant MGL; [6]): 6.32
6.72 | 6.76 | CCCCC/C=C\C/C=C\CCCCCCCC(=O)N1CC(N2CCN(C(=O)c3nccs3)CC2)C1 [Cpd 638] | pKd (mutant MGL; [3]): 6.58
7.72 |  | O=C(COc1ccc(C(=O)N2CC(N3CCN(C(=O)c4nccs4)CC3)C2)cc1)Nc1cccc(C(F)(F)F)c1 [Cpd 1041] | pKd (mutant MGL; [3]): 6.40
5.29 |  | Cc1c(C(=O)N2CCN(C3CN(C(=O)c4ccc[nH]4)C3)CC2)n(C)c2ccc(Cl)cc12 [Cpd 839] | pKd (mutant MGL; [3]): 5.60
6.13 |  | O=C(c1ccc2c(c1)OCCCO2)N1CC(N2CCN(C(=O)c3nccs3)CC2)C1 [Cpd 770] | pKd (mutant MGL; [3]): 5.95
5.83 | 7.08 | O=C(c1ccc2c(c1)[nH]c(=O)n2C1CCC(F)(F)CC1)N1CC(N2CCN(C(=O)c3cscn3)CC2)C1 [Cpd 945] | 
5.67 |  | O=C(c1ccccn1)N1CCN(C2CN(C(=O)c3sc4cc(F)ccc4c3Cl)C2)CC1 [Cpd 810] | pKd (mutant MGL; [6]): 6.54
5.48 |  | O=C(c1cscn1)N1CCN(C2CN(C(=O)c3cn(-c4ccc(F)cc4)c4ccccc34)C2)CC1 [Cpd 1295] | Kd (mutant MGL; [5]): 1.51 µM
4.99 |  | O=C(c1cscn1)N1CCN(C2CN(C(=O)c3cc4ccc(C(F)(F)F)nc4[nH]3)C2)CC1 [Cpd 865] | pKd (mutant MGL; [3]): 5.60
6.36 |  | O=C(c1cscn1)N1CCN(C2CN(C(=O)c3cccc4nc(-c5cccc(Cl)c5)oc34)C2)CC1 [Cpd 1238] | pKd (mutant MGL; [6]): 6.90
> 8.30 |  | O=C(c1ccc2c(ccn2-c2cc(F)ccc2F)c1)N1CC(N2CCN(C(=O)c3nccs3)CC2)C1 [Cpd 1373] | Kd (mutant MGL; [5]): 0.004 µM
